Laboratory results published in US20080161365A1, “Methylene Derivatives” (PFIZER INC., priority 2005, published 2008).
Values after ≈ are worked out from the molar mass of the structure shown. Values joined by “and” are separate entries in the source; they are usually repeats but may differ in a detail not shown here. Equal entries are not always repeated.

Tests used:
[1] = PDS solubility (Chemical Method 1, UV-visible absorbance of saturated solution); assay type: physicochemical; settings: thermodynamic from solid; pH 6.5 aqueous phosphate buffer, 5% glyme
Description: Solubility of a test compound of the present invention refers to solubility of the compound in a solvent mixture containing ethylene glycol dimethylether (“glyme”) and pH 6.5 aqueous phosphate buffer. The solubility was determined by measuring ultraviolet-visible absorbance of a saturated solution of the compound and comparing the absorbance value to absorbance values obtained for four standard solutions of the compound having known concentrations plotted on a 4-point ultraviolet-visible standard curve. […]
The prepared 96-well plate was transferred to a 96-well ultraviolet-visible plate reader, and the wells were scanned over wavelengths of from 220 nm to 350 nm with a step size of 2 nm. The ultraviolet-visible data (i.e., data generated at the same wavelength) were electronically exported to a spreadsheet and absorbance data for the filtrate of the saturated solution measured at one wavelength (i.e., the data that had the best linear fit as calculated by the highest regression coefficient, typically 0.98 or higher) and the corresponding standards absorbance data measured at the same wavelength were plotted as a standard absorbance-concentration curve based on the Lambert-Beer law. […] The calculated solubility was expressed as in milligrams of test compound in milliliters of solvent. […]

[2] = target: T1, MMP-13 catalytic domain (Homo sapiens, UniProt P45452); test: MMP-13 catalytic domain thiopeptolide hydrolysis inhibition (Biological Method 1); assay type: biochemical; settings: HEPES pH 7.0, 22° C.; read-out: MMP-13CD IC50
T1 construct: use the catalytic domain of the MMP-13 enzyme, namely matrix metalloproteinase-13 catalytic domain
From the text: (§1) In general, the MMP inhibition assays measure the amount by which a test compound reduces the hydrolysis of a thiopeptolide substrate catalyzed by a matrix metalloproteinase enzyme. Such assays are described in detail by Ye et al., in Biochemistry, 1992;31(45):11231-11235, which is incorporated herein by reference.
Some of the particular methods described below use the catalytic domain of the MMP-13 enzyme, namely matrix metalloproteinase-13 catalytic domain (“MMP-13CD”), rather than the corresponding full-length enzyme, MMP-13. It has been shown previously by Ye Qi-Zhuang, Hupe D., and Johnson L. (Current Medicinal Chemistry, 1996;3:407-418) that inhibitor activity against a catalytic domain of an MMP is predictive of the inhibitor activity against the respective full-length MMP enzyme.
Thiopeptolide substrates show virtually no decomposition or hydrolysis at or below neutral pH in the absence of a matrix metalloproteinase enzyme. A typical thiopeptolide substrate commonly utilized for assays is Ac-Pro-Leu-Gly-thioester-Leu-Leu-Gly-OEt. A 100 μL assay mixture will contain 50 mM of N-2-hydroxyethylpiperazine-N′-2-ethanesulfonic acid buffer (“HEPES,” pH 7.0), 10 mM CaCl2, 100 μM thiopeptolide substrate, and 1 mM 5,5′-dithio-bis-(2-nitrobenzoic acid) (DTNB). The thiopeptolide substrate concentration may be varied, for example from 10 to 800 μM to obtain Km and Kcat values. The change in absorbance at 405 nm is monitored on a Thermo Max microplate reader (molecular Devices, Menlo Park, Calif.) at room temperature (22° C.). The calculation of the amount of hydrolysis of the thiopeptolide substrate is based on E412=13600 M^−1 cm^−1 for the DTNB-derived product 3-carboxy-4-nitrothiophenoxide. Assays are carried out with and without matrix metalloproteinase inhibitor compounds, and the amount of hydrolysis is compared for a determination of inhibitory activity of the test compounds. […]

[3] = target: T2, MMP-1 full-length (Homo sapiens, UniProt P03956); test: MMP-1 full-length thiopeptolide hydrolysis inhibition; assay type: biochemical; settings: read-out: MMP-1FL IC50
T2 construct: have been assayed with MMP-1 full-length, MMP-2 full-length
T2 sequence (P03956 100-469): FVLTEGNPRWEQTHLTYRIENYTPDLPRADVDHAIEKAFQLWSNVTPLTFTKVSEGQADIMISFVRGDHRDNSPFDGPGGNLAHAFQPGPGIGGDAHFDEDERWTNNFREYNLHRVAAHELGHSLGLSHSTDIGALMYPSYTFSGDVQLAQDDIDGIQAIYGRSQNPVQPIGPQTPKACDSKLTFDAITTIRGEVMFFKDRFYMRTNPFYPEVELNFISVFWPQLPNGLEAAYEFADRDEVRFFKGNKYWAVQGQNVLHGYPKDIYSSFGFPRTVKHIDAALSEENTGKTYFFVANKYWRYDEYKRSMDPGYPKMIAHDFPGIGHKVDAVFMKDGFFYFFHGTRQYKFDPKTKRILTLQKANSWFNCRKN
From the text: as §1
(§2) Thiopeptolide substrates show virtually no decomposition or hydrolysis at or below neutral pH in the absence of a matrix metalloproteinase enzyme. A typical thiopeptolide substrate commonly utilized for assays is Ac-Pro-Leu-Gly-thioester-Leu-Leu-Gly-OEt. A 100 μL assay mixture will contain 50 mM of N-2-hydroxyethylpiperazine-N′-2-ethanesulfonic acid buffer (“HEPES,” pH 7.0), 10 mM CaCl2, 100 μM thiopeptolide substrate, and 1 mM 5,5′-dithio-bis-(2-nitrobenzoic acid) (DTNB). The thiopeptolide substrate concentration may be varied, for example from 10 to 800 μM to obtain Km and Kcat values. The change in absorbance at 405 nm is monitored on a Thermo Max microplate reader (molecular Devices, Menlo Park, Calif.) at room temperature (22° C.). The calculation of the amount of hydrolysis of the thiopeptolide substrate is based on E412=13600 M^−1 cm^−1 for the DTNB-derived product 3-carboxy-4-nitrothiophenoxide. Assays are carried out with and without matrix metalloproteinase inhibitor compounds, and the amount of hydrolysis is compared for a determination of inhibitory activity of the test compounds.
(§3) Test compounds were evaluated at various concentrations in order to determine their respective IC50 values, the micromolar concentration of compound required to cause a 50% inhibition of catalytic activity of the respective enzyme.
(§4) The test described above for the inhibition of MMP-13 may also be adapted and used to determine the ability of the compounds of formula (I) to inhibit the matrix metalloproteases MMP-1, MMP-2, MMP-3, MMP-7, MMP-9, MMP-12, MMP-14, and MMP-17. […]

[4] = target: T3, MMP-3 catalytic domain (Homo sapiens, UniProt P08254); test: MMP-3 catalytic domain thiopeptolide hydrolysis inhibition; assay type: biochemical; settings: MES buffer pH 6.0; read-out: MMP-3CD IC50
T3 construct: MMP-2 full-length, MMP-3 catalytic domain, MMP-7 full-length
From the text: as §1, §2, §3
The assay buffer used with MMP-3CD was 50 mM N-morpholinoethane sulfonate (“MES”) at pH 6.0 rather than the HEPES buffer at pH 7.0 described above.
as §4

[5] = target: T4, MMP-7 full-length (Homo sapiens, UniProt P09237); test: MMP-7 full-length thiopeptolide hydrolysis inhibition; assay type: biochemical; settings: read-out: MMP-7FL IC50
T4 construct: further screened with full-length MMP-2, full-length MMP-7, full-length MMP-9
T4 sequence (P09237 95-267): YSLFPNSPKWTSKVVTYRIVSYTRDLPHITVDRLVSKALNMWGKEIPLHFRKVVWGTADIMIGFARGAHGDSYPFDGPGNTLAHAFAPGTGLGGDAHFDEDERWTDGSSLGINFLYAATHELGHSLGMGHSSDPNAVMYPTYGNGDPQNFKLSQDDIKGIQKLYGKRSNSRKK
From the text: as §1, §2, §3, §4

[6] = target: T5, MMP-8 catalytic domain (Homo sapiens, UniProt P22894); test: MMP-8 catalytic domain thiopeptolide hydrolysis inhibition; assay type: biochemical; settings: read-out: MMP-8CD IC50
T5 construct: MMP-7 full-length, MMP-8 catalytic domain, MMP-9 full-length
From the text: as §1, §2, §3
Certain compounds of formula (I) have been assayed with MMP-1 full-length, MMP-2 full-length, MMP-3 catalytic domain, MMP-7 full-length, MMP-8 catalytic domain, MMP-9 full-length, MMP-12 catalytic domain, and MMP-14 catalytic domain.

[7] = target: T6, MMP-9 full-length (Homo sapiens, UniProt P14780); test: MMP-9 full-length thiopeptolide hydrolysis inhibition; assay type: biochemical; settings: read-out: MMP-9FL IC50
T6 construct: further screened with full-length MMP-2, full-length MMP-7, full-length MMP-9
From the text: as §1, §2, §3, §4

[8] = target: T7, MMP-12 catalytic domain (Homo sapiens, UniProt P39900); test: MMP-12 catalytic domain thiopeptolide hydrolysis inhibition; assay type: biochemical; settings: read-out: MMP-12CD IC50
T7 construct: MMP-9 full-length, MMP-12 catalytic domain, and MMP-14 catalytic domain
From the text: as §1, §2, §3, §4

[9] = target: T8, MMP-14 catalytic domain (Homo sapiens, UniProt P50281); test: MMP-14 catalytic domain thiopeptolide hydrolysis inhibition; assay type: biochemical; settings: read-out: MMP-14CD IC50
T8 construct: MMP-9 full-length, MMP-12 catalytic domain, and MMP-14 catalytic domain
From the text: as §1, §2, §3, §4

[10] = target: T9, MMP-2 full-length (Homo sapiens, UniProt P08253); test: MMP-2 full-length thiopeptolide hydrolysis inhibition; assay type: biochemical; settings: read-out: MMP-2FL IC50
T9 construct: further screened with full-length MMP-2, full-length MMP-7, full-length MMP-9
T9 sequence (P08253 110-660): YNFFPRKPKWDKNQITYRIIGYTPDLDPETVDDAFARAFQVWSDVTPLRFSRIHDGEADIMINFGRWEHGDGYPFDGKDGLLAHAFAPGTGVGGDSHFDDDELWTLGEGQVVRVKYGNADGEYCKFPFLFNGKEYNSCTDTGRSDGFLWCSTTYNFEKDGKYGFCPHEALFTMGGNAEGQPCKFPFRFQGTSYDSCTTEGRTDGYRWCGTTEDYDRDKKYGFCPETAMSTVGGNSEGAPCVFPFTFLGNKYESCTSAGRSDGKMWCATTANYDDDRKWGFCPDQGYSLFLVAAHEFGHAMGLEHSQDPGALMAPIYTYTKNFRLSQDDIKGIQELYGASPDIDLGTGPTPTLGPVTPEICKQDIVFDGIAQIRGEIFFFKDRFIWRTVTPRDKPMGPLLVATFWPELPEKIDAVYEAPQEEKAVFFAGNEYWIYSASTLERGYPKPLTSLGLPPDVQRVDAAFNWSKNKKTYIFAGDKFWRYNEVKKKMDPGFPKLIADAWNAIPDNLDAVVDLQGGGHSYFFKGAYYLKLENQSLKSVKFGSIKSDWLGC
From the text: as §1
Thiopeptolide substrates show virtually no decomposition or hydrolysis at or below neutral pH in the absence of a matrix metalloproteinase enzyme. A typical thiopeptolide substrate commonly utilized for assays is Ac-Pro-Leu-Gly-thioester-Leu-Leu-Gly-OEt. A 100 μL assay mixture will contain 50 mM of N-2-hydroxyethylpiperazine-N′-2-ethanesulfonic acid buffer (“HEPES,” pH 7.0), 10 mM CaCl2, 100 μM thiopeptolide substrate, and 1 mM 5,5′-dithio-bis-(2-nitrobenzoic acid) (DTNB). The thiopeptolide substrate concentration may be varied, for example from 10 to 800 μM to obtain Km and Kcat values. The change in absorbance at 405 nm is monitored on a Thermo Max microplate reader (molecular Devices, Menlo Park, Calif.) at room temperature (22° C.). The calculation of the amount of hydrolysis of the thiopeptolide substrate is based on E412=13600 M^−1 cm^−1 for the DTNB-derived product 3-carboxy-4-nitrothiophenoxide. […]

T7 sequence (P39900 106-263 limits assumed, species assumed): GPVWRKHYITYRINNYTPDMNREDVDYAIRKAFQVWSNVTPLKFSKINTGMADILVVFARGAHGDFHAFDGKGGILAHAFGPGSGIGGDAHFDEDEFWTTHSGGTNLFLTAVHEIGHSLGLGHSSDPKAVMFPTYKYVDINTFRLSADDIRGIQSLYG
T6 sequence (P14780 94-707, species assumed): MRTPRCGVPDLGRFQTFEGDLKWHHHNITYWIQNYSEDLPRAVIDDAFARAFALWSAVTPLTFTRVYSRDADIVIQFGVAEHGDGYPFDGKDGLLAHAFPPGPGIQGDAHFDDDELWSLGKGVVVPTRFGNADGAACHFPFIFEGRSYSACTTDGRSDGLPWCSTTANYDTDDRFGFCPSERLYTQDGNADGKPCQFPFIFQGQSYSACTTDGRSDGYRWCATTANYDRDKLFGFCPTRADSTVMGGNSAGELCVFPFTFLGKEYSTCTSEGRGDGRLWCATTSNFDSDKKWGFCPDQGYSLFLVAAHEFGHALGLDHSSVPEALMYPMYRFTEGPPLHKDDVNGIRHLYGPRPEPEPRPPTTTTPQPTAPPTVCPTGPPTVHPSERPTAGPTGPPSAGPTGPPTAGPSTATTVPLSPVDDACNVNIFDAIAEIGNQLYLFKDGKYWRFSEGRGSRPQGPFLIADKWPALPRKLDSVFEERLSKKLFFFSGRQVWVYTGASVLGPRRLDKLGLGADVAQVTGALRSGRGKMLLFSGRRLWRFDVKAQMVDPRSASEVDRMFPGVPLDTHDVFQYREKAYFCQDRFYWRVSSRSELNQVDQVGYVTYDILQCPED
T3 sequence (P08254 100-272 limits assumed, species assumed): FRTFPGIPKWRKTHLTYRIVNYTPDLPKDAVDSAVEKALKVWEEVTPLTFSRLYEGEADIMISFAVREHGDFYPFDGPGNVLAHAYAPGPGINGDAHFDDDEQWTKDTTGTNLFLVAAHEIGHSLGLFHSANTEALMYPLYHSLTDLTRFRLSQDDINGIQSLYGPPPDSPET
T5 sequence (P22894 100-262 limits assumed, species assumed): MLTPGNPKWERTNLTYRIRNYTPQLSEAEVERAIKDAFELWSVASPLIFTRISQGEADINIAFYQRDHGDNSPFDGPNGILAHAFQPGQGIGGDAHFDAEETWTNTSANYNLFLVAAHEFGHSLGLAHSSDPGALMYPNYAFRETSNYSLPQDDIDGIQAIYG

## Cc1cc(C(F)CCc2ccc(C(=O)O)cc2)cc(C(=O)NCc2cccc(C(F)(F)F)c2)n1 (stereo not shown) [Example 1, 4-{3-fluoro-3-[2-methyl-6-(3-trifluoromethyl-benzylcarbamoyl)-pyridin-4-yl]-propyl}-benzoic acid]
[1]
  solubility: 27 µg/mL (≈ 56.9 µM)
[2]
  IC50: 0.028 µM and 0.039 µM
[3]
  IC50: > 100 µM
[4]
  IC50: 11 µM
[5]
  IC50: 51 µM
[6]
  IC50: > 30 µM
[7]
  IC50: 51 µM
[8]
  IC50: > 100 µM
[9]
  IC50: 56 µM

## Cc1cc(C(F)(F)CCc2ccc(C(=O)O)cc2)cc(C(=O)NCc2cccc(C(F)(F)F)c2)n1.O=C(O)C(F)(F)F [Example 2, 4-{3,3-difluoro-3-[2-methyl-6-(3-trifluoromethyl-benzylcarbamoyl)-pyridin-4-yl]-propyl}-benzoic acid monotrifluoroacetic acid salt]
[1]
  solubility: 4 µg/mL
[2]
  IC50: 0.087 µM and 0.11 µM
[3]
  IC50: > 100 µM
[10]
  IC50: > 100 µM
[4]
  IC50: 13 µM
[5]
  IC50: 1.7 µM
[6]
  IC50: > 30 µM
[7]
  IC50: 64 µM
[8]
  IC50: > 100 µM
[9]
  IC50: > 100 µM

## Cc1cc(C(O)CCc2ccc(C(=O)O)cc2)cc(C(=O)NCc2cccc(C(F)(F)F)c2)n1 (stereo not shown) [Example 3, 4-{3-hydroxy-3-[2-methyl-6-(3-trifluoromethyl-benzylcarbamoyl)-pyridin-4-yl]-propyl}-benzoic acid]
[2]
  IC50: 0.062 µM
[3]
  IC50: > 100 µM
[10]
  IC50: 90 µM
[4]
  IC50: 6 µM
[5]
  IC50: < 10 µM
[6]
  IC50: > 100 µM
[7]
  IC50: < 10 µM
[8]
  IC50: > 100 µM
[9]
  IC50: > 100 µM
